These results are taken from article PMC4861267 (PLoS ONE, 2016).

Molecules are shown by their SMILES. Like-named read-outs stand apart in the source and are kept apart here.

The target of data set [1] is T1, histamine H2 receptor (Rattus norvegicus, UniProt P25102).
T1 construct: endogenous in cells
Briefly: Competition binding assay (displacement of ^3H-tiotidine). The text has this: (§1) All test animals were used in accordance with the National Institutes of Health Guidelines for the Care and Use of Laboratory Animals and Permission for Use of Laboratory Animals 34401-1/2010/8 and U34401-12/2013/3 issued by the Administration of the Republic of Slovenia for Food Safety, Veterinary and Plant Protection to prepare primary astrocytes cultures from newborn not-treated rat. 3 day old rats were sacrificed by decapitation, followed by removing the brain cortices. Primary cultures of astrocytes were prepared and cultured as previously described. Cells were grown in high-glucose Dulbecco's modified Eagle's medium (DMEM), containing 10% fetal bovine serum (FBS), 1 mM pyruvate, 2 mM glutamine, and 25 μg/ml gentamycin in 95% air-5% CO2. Confluent cultures were shaken at 225 rpm overnight and the medium was changed the next morning; this was repeated a total of three times. After the third overnight shaking, the cells were trypsinized and cultured for 24 h in 10 μM cytosine arabinoside. After reaching confluence again the cells were subcultured into 12-well clusters and grown until becoming confluent again. The confluent cells were detached, washed twice in PBS, and cell sediment was stored at –70°C until used for the binding assay.
In the competition binding experiments, astrocyte cells were incubated together in the presence of different histaminergic ligands in the concentration range from 0.01 nM– 100 μM under the same incubation conditions as above. The concentration of ^3H-tiotidine used was 5 nM. The binding reaction was rapidly terminated and the bound ligand was separated from the unbound by vacuum filtration. The radioactivity trapped on the GF/C glass fiber filters was counted in a liquid scintillation counter (Microbeta, Perkin Elmer, USA).
(§2) The binding experiments were routinely carried out in triplicate and each experiment was repeated at least twice. The results are expressed as means ± SEM. The binding parameters (KD, Bmax, and IC50) were calculated by a non-linear regression method using software Prism6 version 6.00, GraphPad Software Inc. (San Diego, USA). A comparison of the data among the groups was carried out using Student`s unpaired t-test with Welch correction, where two groups of data were compared. Differences were considered significant at p < 0.05.

The target in data set [2] is T1, histamine H2 receptor. In words: ^3H-tiotidine saturation binding assay. Particulars: cultured neonatal rat astrocytes; for Kd: read-out: equilibrium dissociation constant (KD).
Text: as §1
0.1 mg of astrocyte cell protein was incubated for 15 minutes at 25°C in 0.15M Na^+/K^+ -phosphate buffer (pH 7.4) or in 0.15M Na^+/K^+ -phosphate buffer made using D2O instead of miliQ water (pH 7.4) in a total volume of 0.25 mL with the indicated concentrations of ^3H-tiotidine (1–15 nM), with a specific activity of 82.2 Ci/mmol. Specific binding represented the difference between total and non-specific binding (binding in the presence of 1 μM cimetidine).
as §2

The conditions of data set [3]: MP2/6–31++G(2d,2p) and Langevin dipole calculated value; cited from earlier work.
Where [4] appears, read: regular phosphate buffer (control).

T1 sequence (P25102 whole entry): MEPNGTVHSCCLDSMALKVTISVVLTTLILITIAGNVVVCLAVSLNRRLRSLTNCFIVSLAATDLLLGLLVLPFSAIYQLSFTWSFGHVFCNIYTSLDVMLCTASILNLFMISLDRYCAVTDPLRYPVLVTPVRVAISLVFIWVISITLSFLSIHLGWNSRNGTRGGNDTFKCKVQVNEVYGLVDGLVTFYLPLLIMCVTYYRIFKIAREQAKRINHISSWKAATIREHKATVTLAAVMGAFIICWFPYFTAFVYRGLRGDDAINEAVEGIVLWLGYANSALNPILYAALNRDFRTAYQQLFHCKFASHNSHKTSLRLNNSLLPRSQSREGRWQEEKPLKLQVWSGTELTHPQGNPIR

With `Cc1ncc(CCN)[nH]1` [2-methylhistamine], the IC50 at histamine H2 receptor [1] was 4.17 nM.

As to `CN=C(NC#N)NCCSCc1csc(N=C(N)N)n1` [^3H-tiotidine], at histamine H2 receptor [2] (deuterated medium (D2O)), the “maximal binding capacity (Bmax)” value came out at 17.1 ± 2.7 fmol/mg protein and the Kd turned out to be 7.4 ± 2.4 nM. For the same molecule, at histamine H2 receptor [2] (setting [4]), the “maximal binding capacity (Bmax)” value amounted to 18.6 ± 1.7 fmol/mg protein and the Kd is 4.7 ± 1 nM.

As for `NCCc1c[nH]cn1` [deuterated histamine], the IC50 at histamine H2 receptor [1] (deuterated (D), read-out: reported measured value (ligand binding constant)) worked out at 16 nM.

For the molecule `[2H]N([2H])CCc1cn([2H])cn1` [deuterated histamine], on histamine H2 receptor [1] (deuterated (D), from measured value 16 nM), the binding free energy result is “–10.59 kcal/mol”.

Turning to `NCCc1c[nH]cn1` [histamine], at histamine H2 receptor [1] (control (H), from measured value 56 nM), the binding free energy result is “–9.86 kcal/mol”. The IC50 at histamine H2 receptor [1] (control (H), read-out: reported measured value (ligand binding constant)) came out at 56 nM. The “ΔEINTER(exp) ΔΔE(H2O–D2O); experimental difference in binding free energy upon deuteration” value on histamine H2 receptor [1] (ΔGBIND(H→D) = −RT ln(KD/KH)) came to 0.73 kcal mol^–1. Moreover, in data set [3], the hydration free energy entry is reported as “–68.6 kcal mol^–1”.

In general, Kd refers to the free concentration of one partner at which half of the binding sites on the other are occupied at equilibrium, for simple one-to-one binding.
